Test results taken from US20240294543A1, “CYCLOHEPTA-THIENO-DIAZEPINE DERIVATIVES AS GABA A GAMMA1 PAM” (Hoffmann-La Roche Inc., priority 2021, published 2024).
Where two headings read alike, the source gives them in different places.

How the values were obtained:
[1] = target: human GABAA α2β2γ1 receptor (Homo sapiens (Human), UniProt P47869+Q8N1C3); experiment: Radioligand binding assay, competition for [3H]RO7239181, γ1-containing GABAA subtypes; settings: Ki h-GABAA α2β2γ1, membranes of HEK293F cells, [3H]RO7239181 20-30 nM
Method: The affinity of compounds at GABAA γ1 subunit-containing receptors was measured by competition for [^3H]RO7239181 (67.3 Ci/mmol; Roche) binding to membranes from HEK293F cells (ThermoFisher R79007) expressing human (transiently transfected) receptors of composition α5β2γ1, α2β2γ1, α1β2γ1.
Harvested pellets from HEK293F cells expressing the different GABAA receptor subtypes were resuspended in Mannitol Buffer pH 7.2-7.4 (Mannitol 0.29 M, Triethylamine 10 mM, Acetic acid 10 mM, EDTA 1 mM plus protease inhibitors (20 tablets Complete, Roche Diagnostics Cat. No. 05 056 489 001 per liter)), washed two times and then resuspended at 1:10 to 1:15 dilution in the same buffer. Cell disruption was performed by stirring the suspension in a Parr vessel #4637 at 435 psi for 15 minutes, and then the suspensions were centrifuged at 1000×g for 15 minutes at 4° C. (Beckman Avanti J-HC; rotor JS-4.2). The supernatant (S1) was transferred in a 21 Schott flask and the pellet (P1) was resuspended with Mannitol Buffer up to 175 ml. The resuspended pellet was transferred into a 250 ml Corning centrifugal beaker and centrifuged at 1500×g for 10 minutes at 4° C. (Beckman Avanti J-HC; rotor JS-4.2). The supernatant (S1) was then transferred in the 21 Schott flask and the pellet was discarded. The supernatants (S1) were centrifuged in 500 ml Beckman polypropylene centrifugal beaker at 15'000×g for 30 minutes at 4° C. (Beckman Avanti J-20 XP; rotor JLA-10.500). The pellet (P2) was resuspended with Mannitol Buffer 1:1 and frozen at −80° C. The supernatant (S2) was centrifuged in 100 ml Beckman polypropylene centrifugal tubes at 48000×g for 50 minutes at 4° C. (Beckman Avanti J-20 XP; rotor JA-18). The supernatant (S3) was discarded and the pellet (P3) was resuspended with 1:1 Mannitol Buffer. The P2 and P3 protein concentration was determined with the BIORAD Standard assay method with bovine serum albumin as standard and measured on the NANO-Drop 1000. The membrane suspension was aliquots (500 μl per tube) and stored at −80° C. until required.
Membrane homogenates were resuspended and polytronised (Polytron PT1200E Kinematica AG) in Potassium Phosphate 10 mM, KCl 100 mM binding buffer at pH 7.4 to a final assay concentration determined with a previous experiment.
Assays were incubated to equilibrium for 1 hour at 4° C. and then, membranes were filtered onto unifilter (96-well white microplate with bonded GF/C filters preincubated 20-50 minutes in 0.3% Polyethylenimine) with a Filtermate 196 harvester (Packard BioScience) and washed 4 times with cold Potassium Phosphate 10 mM pH 7.4, KCl 100 mM binding buffer. After anhydrousing, filter-retained radioactivity was detected by liquid scintillation counting. Ki values were calculated using Excel-Fit (Microsoft) and are the means of two determinations.

[2] = target: human GABAA α1β3γ2 receptor (Homo sapiens (Human), UniProt P14867+P18507); experiment: Radioligand binding assay, competition for [3H]Flumazenil, γ2-containing GABAA subtypes; settings: for γ2/γ1 Selectivity Ratio: Ki α1β3γ2 (nM)/Ki α2β2γ1 (nM); for LogSel: Log[Ki α1β3γ2 (nM)/Ki α2β2γ1 (nM)]
Method: The affinity of compounds at GABAA γ2 subunit-containing receptors was measured by competition for [^3H]Flumazenil (81.1 Ci/mmol; Roche) binding to HEK293F cells expressing human (transiently transfected) receptors of composition α1β3γ2.
Harvested pellets from HEK293F cells expressing the different GABAA γ2 receptor subtypes were resuspended in Mannitol Buffer pH 7,2-7,4 and processed as described above for the cells expressing the GABAA γ1 subunit-containing receptors.
Assays were incubated to equilibrium for 1 hour at 4° C. and harvested onto GF/C uni-filters (Packard) by filtration using a Packard harvester and washing with ice-cold wash buffer (50 mM Tris; pH 7.5). After anhydrousing, filter-retained radioactivity was detected by liquid scintillation counting. Ki values were calculated using Excel-Fit (Microsoft) and are the means of two determinations.

[3] = HEK293F cells, [3H]Flumazenil 1 nM, Table 1, read-out: Ki h-GABAA α1β3γ2

Structure (SMILES)	Ki ([1]; Table 1)	Ki ([1]; Table 2)	Ki [2, 3]	γ2/γ1 Selectivity Ratio ([2]; Table 1)	LogSel ([2]; Table 1)	Ki [2]
C[C@@H]1N=C(c2c(F)cccc2F)c2c(sc3c2COCCO3)-n2cc(C(=O)NCC3(O)CC3)nc21 [Example 65, (7S)-9-(2,6-difluorophenyl)-N-[(1-hydroxycyclopropyl)methyl]-7-methyl-13,16-dioxa-18-thia-2,5,8-triazatetracyclo[8.8.0.02,6.011,17]octadeca-1(10),3,5,8,11(17)-pentaene-4-carboxamide]	23.1 nM	23.1 nM	1240 nM	53.8	1.73	
C[C@@H]1N=C(c2c(F)cccc2F)c2c(sc3c2COCCC3)-n2cc(C(=O)NCCO)nc21 [Example 66, (7S)-9-(2,6-difluorophenyl)-N-(2-hydroxyethyl)-7-methyl-13-oxa-18-thia-2,5,8-triazatetracyclo[8.8.0.02,6.011,17]octadeca-1(10),3,5,8,11(17)-pentaene-4-carboxamide]	14.7 nM	14.7 nM	2510 nM	170.6	2.23	
C[C@@H]1N=C(c2c(F)cccc2F)c2c(sc3c2COCCC3)-n2cc(C(=O)NCC(C)(C)O)nc21 [Example 67, (7S)-9-(2,6-difluorophenyl)-N-(2-hydroxy-2-methyl-propyl)-7-methyl-13-oxa-18-thia-2,5,8-triazatetracyclo[8.8.0.02,6.011,17]octadeca-1(10),3,5,8,11(17)-pentaene-4-carboxamide]	21.3 nM	21.3 nM	1800 nM	84.5	1.93	
C[C@@H]1N=C(c2c(F)cccc2F)c2c(sc3c2COCCC3)-n2nc(C(=O)N[C@H]3C[C@@H](O)C3)nc21 [Example 64, (7S)-9-(2,6-difluorophenyl)-N-(cis-3-hydroxycyclobutyl)-7-methyl-13-oxa-18-thia-2,3,5,8-tetrazatetracyclo[8.8.0.02,6.011,17]octadeca-1(10),3,5,8,11(17)-pentaene-4-carboxamide]	56.2 nM	56.2 nM	7870 nM	139.9	2.15	
Cc1nc2n(n1)-c1sc3c(c1C(c1c(F)cccc1F)=N[C@H]2C)COCCO3 [Example 28, (7S)-9-(2,6-difluorophenyl)-4,7-dimethyl-13,16-dioxa-18-thia-2,3,5,8-tetrazatetracyclo[8.8.0.02,6.011,17]octadeca-1(10),3,5,8,11(17)-pentaene]	5.5 nM	5.5 nM		353.3	2.55	1940 nM
Cc1nc2n(n1)-c1sc3c(c1C(c1c(F)cccc1F)=N[C@H]2C)COCCC3 [Example 57, (7S)-9-(2,6-difluorophenyl)-4,7-dimethyl-13-oxa-18-thia-2,3,5,8-tetrazatetracyclo[8.8.0.02,6.011,17]octadeca-1(10),3,5,8,11(17)-pentaene]	7.3 nM	7.3 nM		615.2	2.79	4520 nM
C[C@@H]1N=C(c2c(F)cccc2F)c2c(sc3c2COCCO3)-n2c(C(F)F)nnc21 [Example 48, (7S)-3-(difluoromethyl)-9-(2,6-difluorophenyl)-7-methyl-13,16-dioxa-18-thia-2,4,5,8-tetrazatetracyclo[8.8.0.02,6.011,17]octadeca-1(10),3,5,8,11(17)-pentaene]	47.9 nM	47.9 nM		626.6	2.80	> 30000 nM
C[C@@H]1N=C(c2c(F)cccc2F)c2c(sc3c2COCCC3)-n2cc(C(=O)NCC3(O)CC3)nc21 [Example 68, (7S)-9-(2,6-difluorophenyl)-N-[(1-hydroxycyclopropyl)methyl]-7-methyl-13-oxa-18-thia-2,5,8-triazatetracyclo[8.8.0.02,6.011,17]octadeca-1(10),3,5,8,11(17)-pentaene-4-carboxamide]	10.6 nM	10.6 nM	1980 nM	187.5	2.27	
C[C@@H]1N=C(c2c(F)cccc2F)c2c(sc3c2COCCC3)-n2nc(C(=O)NC[C@@](C)(O)C(F)(F)F)nc21 [Example 70, (7S)-9-(2,6-difluorophenyl)-7-methyl-N-[(2R)-3,3,3-trifluoro-2-hydroxy-2-methyl-propyl]-13-oxa-18-thia-2,3,5,8-tetrazatetracyclo[8.8.0.02,6.011,17]octadeca-1(10),3,5,8,11(17)-pentaene-4-carboxamide]	49.9 nM	49.9 nM	3550 nM	71.1	1.85	
C[C@@H]1N=C(c2c(F)cccc2F)c2c(sc3c2COCCO3)-n2nc(C(=O)NCCF)nc21 [Example 25, (7S)-9-(2,6-difluorophenyl)-N-(2-fluoroethyl)-7-methyl-13,16-dioxa-18-thia-2,3,5,8-tetrazatetracyclo[8.8.0.02,6.011,17]octadeca-1(10),3,5,8,11(17)-pentaene-4-carboxamide]	29 nM	29 nM	2190 nM	75.4	1.88	
Cc1cn2c(nc1=O)[C@H](C)N=C(c1c(F)cccc1F)c1c-2sc2c1CCCCC2 [Example 26, (8S)-10-(2,6-difluorophenyl)-4,8-dimethyl-19-thia-2,6,9-triazatetracyclo[9.8.0.02,7.012,18]nonadeca-1(11),3,6,9,12(18)-pentaen-5-one]	32 nM	32 nM		188.9	2.28	6040 nM
Cc1nnc2n1-c1sc3c(c1C(c1c(F)cccc1F)=N[C@H]2C)CCCC(O)C3 (mixture of isomers) [Example 13, (7S,15RS)-9-(2,6-difluorophenyl)-3,7-dimethyl-18-thia-2,4,5,8-tetrazatetracyclo[8.8.0.02,6.011,17]octadeca-1(10),3,5,8,11(17)-pentaen-15-ol]	15.1 nM	15.1 nM		78.9	1.90	1190 nM
Cc1nnc2n1-c1sc3c(c1C(c1c(F)cccc1F)=N[C@H]2C)CC[C@@H](F)CO3 [Example 56, (7S,14R)-9-(2,6-difluorophenyl)-14-fluoro-3,7-dimethyl-16-oxa-18-thia-2,4,5,8-tetrazatetracyclo[8.8.0.02,6.011,17]octadeca-1(10),3,5,8,11(17)-pentaene]	39.4 nM	39.4 nM		290.8	2.46	11500 nM
C[C@@H]1N=C(c2c(F)cccc2F)c2c(sc3c2COCCO3)-n2nc(C(=O)N3CC(OC(C)(C)C)C3)nc21 [Example 29, (3-tert-butoxyazetidin-1-yl)-[(7S)-9-(2,6-difluorophenyl)-7-methyl-13,16-dioxa-18-thia-2,3,5,8-tetrazatetracyclo[8.8.0.02,6.011,17]octadeca-1(10),3,5,8,11(17)-pentaen-4-yl]methanone]	7.7 nM	7.7 nM	2830 nM	366.9	2.56	
